Laboratory results taken from US9926281B2 (priority 2014, dated 2018).
Where two headings read alike, the source gives them in different places.

Key:
[1] = biological target: T1, human MMP13 (Homo sapiens (Human), UniProt P45452); conditions: read-out: hMMP-13 potency IC50
Description: Human MMP13 is preactivated by incubated the enzyme in the same buffer complemented with 1 mM freshly prepared p-Aminophenylmercuric acetate (AMPA) for 1 hour at 37° C.

[2] = biological target: T2, human ADAMTS-5 (Homo sapiens (Human), UniProt Q9UNA0); conditions: read-out: hADAMTS-5 potency IC50
Description: Finally, the fluorescence is read on the Envision (Perkin Elmer) after an incubation of 90 min at 37° C.

[3] = biological target: rnADAMTS-5 (1-564-6H) (Rattus norvegicus, UniProt Q6TY19); conditions: read-out: Rat ADAMTS-5 potency IC50
[4] = biological target: human TACE (Homo sapiens (Human), UniProt P78536); conditions: read-out: TACE potency IC50
Sequence of human TACE (P78536 whole entry, looked up, change not shown): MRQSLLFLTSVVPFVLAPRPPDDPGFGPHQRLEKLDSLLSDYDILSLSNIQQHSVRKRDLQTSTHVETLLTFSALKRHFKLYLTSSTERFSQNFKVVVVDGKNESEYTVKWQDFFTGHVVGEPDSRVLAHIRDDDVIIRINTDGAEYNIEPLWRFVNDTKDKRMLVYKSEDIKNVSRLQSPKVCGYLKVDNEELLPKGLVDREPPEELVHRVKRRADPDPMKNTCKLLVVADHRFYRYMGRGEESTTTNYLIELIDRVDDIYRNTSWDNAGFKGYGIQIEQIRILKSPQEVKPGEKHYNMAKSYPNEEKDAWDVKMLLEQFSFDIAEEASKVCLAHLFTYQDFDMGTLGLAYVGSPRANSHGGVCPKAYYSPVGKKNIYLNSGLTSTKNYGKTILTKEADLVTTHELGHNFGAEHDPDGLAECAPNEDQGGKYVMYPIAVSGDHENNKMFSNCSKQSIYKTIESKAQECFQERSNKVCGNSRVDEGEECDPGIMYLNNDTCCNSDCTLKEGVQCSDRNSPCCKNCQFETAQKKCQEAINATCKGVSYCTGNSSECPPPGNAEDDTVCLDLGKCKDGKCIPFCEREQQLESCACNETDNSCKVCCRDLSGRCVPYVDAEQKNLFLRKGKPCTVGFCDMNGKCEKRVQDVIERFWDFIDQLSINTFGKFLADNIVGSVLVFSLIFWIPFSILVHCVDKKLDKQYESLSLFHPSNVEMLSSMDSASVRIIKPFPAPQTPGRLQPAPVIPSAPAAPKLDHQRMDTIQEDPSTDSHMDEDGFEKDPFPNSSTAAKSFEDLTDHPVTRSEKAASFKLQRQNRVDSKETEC

[5] = biological target: human MMP14 (Homo sapiens (Human), UniProt P50281); conditions: read-out: hMMP-14 potency IC50
[6] = biological target: T1, human MMP13; conditions: read-out: hMMP-13 potency IC50; remark: listed apart in the source
Description: The reaction is initiated by adding to the assay plate 520 MMP-fret substrate XV (10 μL, 4 μM) in the same buffer.

[7] = biological target: T2, human ADAMTS-5; conditions: read-out: hADAMTS-5 potency IC50; remark: listed apart in the source

T2 sequence (Q9UNA0 262-930): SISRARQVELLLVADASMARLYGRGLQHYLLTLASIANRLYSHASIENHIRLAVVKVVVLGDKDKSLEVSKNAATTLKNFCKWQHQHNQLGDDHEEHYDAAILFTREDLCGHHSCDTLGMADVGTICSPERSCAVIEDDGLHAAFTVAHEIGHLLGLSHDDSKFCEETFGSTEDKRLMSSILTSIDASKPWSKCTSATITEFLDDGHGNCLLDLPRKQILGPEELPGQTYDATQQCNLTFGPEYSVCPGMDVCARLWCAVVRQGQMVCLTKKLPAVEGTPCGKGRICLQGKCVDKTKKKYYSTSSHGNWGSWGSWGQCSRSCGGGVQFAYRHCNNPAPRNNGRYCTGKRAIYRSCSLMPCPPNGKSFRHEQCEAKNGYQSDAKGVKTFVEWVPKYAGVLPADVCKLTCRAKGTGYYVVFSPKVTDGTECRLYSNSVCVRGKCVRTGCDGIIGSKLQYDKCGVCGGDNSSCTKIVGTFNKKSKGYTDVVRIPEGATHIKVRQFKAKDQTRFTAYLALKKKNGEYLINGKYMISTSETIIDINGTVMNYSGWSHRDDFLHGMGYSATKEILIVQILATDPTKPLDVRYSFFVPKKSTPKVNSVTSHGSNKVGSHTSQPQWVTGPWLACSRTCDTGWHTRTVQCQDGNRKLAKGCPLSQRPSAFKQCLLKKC

| Compound | IC50 [1] | IC50 [2] | IC50 [3] | IC50 [4] | IC50 [5] | IC50 [6] | IC50 [7] |
| --- | --- | --- | --- | --- | --- | --- | --- |
| CC(CC1(CCS(C)(=O)=O)NC(=O)NC1=O)C(=O)N1CCN(c2cc(Cl)cc(Cl)c2)CC1 (stereo not shown) [Cpd 218, 5-[3-[4-(3,5-dichlorophenyl)piperazin-1-yl]-2-methyl-3-oxo-propyl]-5-(2-methylsulfonylethyl)imidazolidine-2,4-dione] | 2220 nM | 20 nM | 17 nM | 272 nM | 1310 nM |  |  |
| CC1(CCC(=O)N2CCN(c3ccccc3)CC2)NC(=O)NC1=O (stereo not shown) [compound 1, 5-methyl-5-[3-oxo-3-(4-phenylpiperazin-1-yl)propyl]imidazolidine-2,4-dione] |  |  | 730 nM | > 20000 nM |  | > 20000 nM |  |
| CC1(CCC(=O)N2CCN(c3ccc(Cl)cc3)CC2)NC(=O)NC1=O (stereo not shown) [compound 2, 5-[3-[4-(4-chlorophenyl)piperazin-1-yl]-3-oxo-propyl]-5-methyl-imidazolidine-2,4-dione] |  |  | 361 nM | > 17500 nM |  | 2370 nM | 274 nM |
| O=C1NC(=O)C(CCC(=O)N2CCN(c3cccc(Cl)c3)CC2)(c2ccccc2)N1 (stereo not shown) [compound 6, 5-[3-[4-(3-chlorophenyl)piperazin-1-yl]-3-oxo-propyl]-5-phenyl-imidazolidine-2,4-dione] |  |  | 107 nM | 2360 nM |  | 2150 nM |  |
| Cc1ccccc1N1CCN(C(=O)CCC2(C)NC(=O)NC2=O)CC1 (stereo not shown) [compound 12, 5-methyl-5-[3-[4-(o-tolyl)piperazin-1-yl]-3-oxo-propyl]imidazolidine-2,4-dione] |  |  | 1160 nM | > 4000 nM |  | > 20000 nM |  |
| Cc1ccccc1N1CCN(C(=O)CC[C@@]2(c3ccccc3)NC(=O)NC2=O)CC1 [compound 27, (5S)-5-[3-[4-(o-tolyl)piperazin-1-yl]-3-oxo-propyl]-5-phenyl-imidazolidine-2,4-dione] | > 20000 nM |  | 124 nM | > 2000 nM | > 20000 nM |  | 90 nM |
| Cc1ccc(Cl)cc1N1CCN(C(=O)CCC2(C3CC3)NC(=O)NC2=O)CC1 (stereo not shown) [compound 36, 5-[3-[4-(5-chloro-2-methyl-phenyl)piperazin-1-yl]-3-oxo-propyl]-5-cyclopropyl-imidazolidine-2,4-dione] | > 20000 nM |  | 29 nM | 670 nM | > 20000 nM |  | 34 nM |
| CC1(CCC(=O)N2CCN(c3cc(Cl)cc(Cl)c3)CC2)NC(=O)NC1=O (stereo not shown) [compound 40, 5-[3-[4-(3,5-dichlorophenyl)piperazin-1-yl]-3-oxo-propyl]-5-methyl-imidazolidine-2,4-dione] | > 20000 nM |  | 234 nM | 2720 nM | > 20000 nM |  |  |
| Cc1ccc(F)cc1N1CCN(C(=O)CCC2(C)NC(=O)NC2=O)CC1 (stereo not shown) [compound 51, 5-[3-[4-(5-fluoro-2-methyl-phenyl)piperazin-1-yl]-3-oxo-propyl]-5-methyl-imidazolidine-2,4-dione] |  |  | 508 nM | > 3660 nM | > 20000 nM |  |  |
| O=C1NC(=O)C(CCC(=O)N2CCN(c3cc(Cl)cc(Cl)c3)CC2)(C2CC2)N1 (stereo not shown) [compound 55, 5-cyclopropyl-5-[3-[4-(3,5-dichlorophenyl)piperazin-1-yl]-3-oxo-propyl]imidazolidine-2,4-dione] | > 20000 nM |  | 37 nM | > 3310 nM | > 20000 nM |  |  |
| O=C1NC(=O)[C@](CCC(=O)N2CCN(c3cc(Cl)cc(Cl)c3)CC2)(C2CC2)N1 [compound 173, (5S)-5-cyclopropyl-5-[3-[4-(3,5-dichlorophenyl)piperazin-1-yl]-3-oxo-propyl]imidazolidine-2,4-dione] | > 20000 nM | 22 nM | 21 nM | 3140 nM | > 20000 nM |  |  |
| C[C@H]1CN(C(=O)CC[C@@]2(C3CC3)NC(=O)NC2=O)CCN1c1cccc(F)c1 [compound 203, (5S)-5-cyclopropyl-5-[3-[(3S)-4-(3-fluorophenyl)-3-methyl-piperazin-1-yl]-3-oxo-propyl]imidazolidine-2,4-dione] | > 20000 nM | 46 nM | 26 nM | > 20000 nM | > 4000 nM |  |  |
| C[C@H]1CN(C(=O)CC[C@@]2(C3CC3)NC(=O)NC2=O)CCN1c1cc(Cl)cc(Cl)c1 [compound 204, (5S)-5-cyclopropyl-5-[3-[(3S)-4-(3,5-dichlorophenyl)-3-methyl-piperazin-1-yl]-3-oxo-propyl]imidazolidine-2,4-dione] | > 12000 nM | 16 nM | 11 nM | 3870 nM | > 20000 nM |  |  |
| C[C@H]1CN(C(=O)CC[C@@]2(C3CC3)NC(=O)NC2=O)CCN1c1ccc(F)c(F)c1 [compound 205, (5S)-5-cyclopropyl-5-[3-[(3S)-4-(3,4-difluorophenyl)-3-methyl-piperazin-1-yl]-3-oxo-propyl]imidazolidine-2,4-dione] | > 20000 nM | 26 nM | 27 nM | > 20000 nM | > 4000 nM |  |  |
| CC(CC1(CCN)NC(=O)NC1=O)C(=O)N1CCN(c2cc(Cl)cc(Cl)c2)CC1 (stereo not shown) [compound 210, 5-(2-aminoethyl)-5-[3-[4-(3,5-dichlorophenyl)piperazin-1-yl]-2-methyl-3-oxo-propyl]imidazolidine-2,4-dione] | > 14700 nM | 108 nM | 105 nM | 1440 nM | > 20000 nM |  |  |
| CC(CC1(C)NC(=O)NC1=O)C(=O)N1CCN(c2cccc(Cl)c2)[C@@H](C)C1 (stereo partly drawn) [compound 214, 5-[3-[(3S)-4-(3-chlorophenyl)-3-methyl-piperazin-1-yl]-2-methyl-3-oxo-propyl]-5-methyl-imidazolidine-2,4-dione] | > 3510 nM | 61 nM | 30 nM | > 4000 nM | 1230 nM |  |  |
| CC(CC1(C)NC(=O)NC1=O)C(=O)N1CCN(c2cccc(F)c2)[C@@H](C)C1 (stereo partly drawn) [compound 215, 5-[3-[(3S)-4-(3-fluorophenyl)-3-methyl-piperazin-1-yl]-2-methyl-3-oxo-propyl]-5-methyl-imidazolidine-2,4-dione] | > 4000 nM | 37 nM | 18 nM | > 12000 nM | 2600 nM |  |  |
| CC(CC1(C)NC(=O)NC1=O)C(=O)N1CCN(c2ccccc2)[C@@H](C)C1 (stereo partly drawn) [compound 217, 5-methyl-5-[2-methyl-3-[(3S)-3-methyl-4-phenyl-piperazin-1-yl]-3-oxo-propyl]imidazolidine-2,4-dione] | > 4000 nM | 59 nM | 49 nM | > 4000 nM | > 4000 nM |  |  |
| CC(CC1(CCNC(=O)OC(C)(C)C)NC(=O)NC1=O)C(=O)N1CCN(c2ccc(F)c(F)c2)CC1 (stereo not shown) [compound 235, tert-butyl N-[2-[4-[3-[4-(3,4-difluorophenyl)piperazin-1-yl]-2-methyl-3-oxo-propyl]-2,5-dioxo-imidazolidin-4-yl]ethyl]carbamate] | 21.2 nM | 16 nM |  | 1320 nM | 26 nM |  |  |
| CC(CC1(CN2CCOCC2)NC(=O)NC1=O)C(=O)N1CCN(c2cc(Cl)cc(Cl)c2)CC1 (stereo not shown) [compound 242, 5-[3-[4-(3,5-dichlorophenyl)piperazin-1-yl]-2-methyl-3-oxo-propyl]-5-(morpholinomethyl)imidazolidine-2,4-dione] | > 20000 nM | 66 nM | 57 nM | 2520 nM | > 20000 nM |  |  |
| CC(CC1(C2CNC2)NC(=O)NC1=O)C(=O)N1CCN(c2ccc(F)c(F)c2)[C@@H](C)C1 (stereo partly drawn) [compound 247, 5-(azetidin-3-yl)-5-[3-[(3S)-4-(3,4-difluorophenyl)-3-methyl-piperazin-1-yl]-2-methyl-3-oxo-propyl]imidazolidine-2,4-dione] | > 20000 nM | 95 nM |  | > 19600 nM | > 4000 nM |  |  |
| CC(=O)N1CC(C2(CC(C)C(=O)N3CCN(c4ccc(F)c(F)c4)[C@@H](C)C3)NC(=O)NC2=O)C1 (stereo partly drawn) [compound 249, 5-(1-acetylazetidin-3-yl)-5-[3-[(3S)-4-(3,4-difluorophenyl)-3-methyl-piperazin-1-yl]-2-methyl-3-oxo-propyl]imidazolidine-2,4-dione] | > 4000 nM | 36 nM | 34 nM | > 19600 nM | 1230 nM |  |  |
| COC(CC1(C)NC(=O)NC1=O)C(=O)N1CCN(c2cc(F)cc(Cl)c2)[C@@H](C)C1 (stereo partly drawn) [compound 295, 5-[3-[(3S)-4-(3-chloro-5-fluoro-phenyl)-3-methyl-piperazin-1-yl]-2-methoxy-3-oxo-propyl]-5-methyl-imidazolidine-2,4-dione] |  | 115 nM | 71 nM | > 20000 nM | 3460 nM |  |  |
| CC(CC1(C2CC2)NC(=O)NC1=O)C(=O)N1CCN(c2cncc(Cl)c2)[C@@H](C)C1 (stereo partly drawn) [compound 314, 5-[3-[(3S)-4-(5-chloro-3-pyridyl)-3-methyl-piperazin-1-yl]-2-methyl-3-oxo-propyl]-5-cyclopropyl-imidazolidine-2,4-dione] |  | 24 nM | 34 nM | > 4000 nM | > 20000 nM |  |  |
| C[C@H]1CN(C(=O)CCC2(c3cocn3)NC(=O)NC2=O)CCN1c1cc(F)cc(Cl)c1 (stereo partly drawn) [compound 388, 5-[3-[(3S)-4-(3-chloro-5-fluoro-phenyl)-3-methyl-piperazin-1-yl]-3-oxo-propyl]-5-oxazol-4-yl-imidazolidine-2,4-dione] |  | 57 nM | 74 nM | > 4000 nM | 549 nM |  |  |
